Test results taken from patent publication US10654866B2, “Selective estrogen receptor degraders” (Eli Lilly and Company, priority 2018, dated 2020).

Legend:
[1] = molecular target: ERα (Y537S mutant) (Homo sapiens (Human), UniProt P03372, Y537S); assay: ERα (Y537S mutant) competition binding assay; details: 3H-estradiol competition; Ki from IC50 by Cheng-Prusoff
Procedure: Add the test compound at 10 different concentrations ranging from 10,000 nM to 0.5 nM, and determine nonspecific binding in the presence of 1 μM of 1713 estradiol. Incubate the binding reaction (140 μL) for 4 hours at room temperature, and then add cold dextran-charcoal buffer (70 μL) (containing per 50 mL of assay buffer, 0.75 g of charcoal and 0.25 g of dextran) to each reaction. Mix the plates for 8 minutes on an orbital shaker at 4° C. and then centrifuge at 3000 rpm at 4° C. for 10 minutes. Transfer an aliquot (120 μL) of the mixture to another 96-well, white flat bottom plate (Costar) and add Perkin Elmer Optiphase Supermix scintillation fluid (175 μL) to each well. Seal the plates and shake vigorously on an orbital shaker. After an incubation of 2.5 hours, read the plates in a Wallac Microbeta counter. […] Convert the IC50 values for the compound to Ki using Cheng-Prusoff equation.

[2] = molecular target: Y537N mutant ERα receptor (Homo sapiens, UniProt P03372, Y537N); assay: PRα inhibition (ERα functional antagonism) cell assay in MCF7-ESR1 Y537N 682 CRISPR cells; assay type: cell-based; details: MCF7 Y537N 682 CRISPR cells, 72 hours, % PR positive cells; read-out: Relative IC50
Procedure: An antagonist in this assay is expected to block the function of the ERα receptor.
Incubate the cells overnight in a cell culture incubator (5% CO2, 95% relative humidity and 37° C.) and allow the cells to attach to the plate. The following day dose the cells with the test compound. Use an Echo 555 acoustic dispenser to prepare compound serial dilutions (1:3) in a range from 6 μM to 0.0003 μM. Dose the cells with the addition of 5 μL from the serial dilution plate to the cell plate producing a final DMSO concentration of 0.2% with a final test compound concentration dose range between 2 and 0.0001 μM. For the maximum point use media containing 0.2% of DMSO and for the minimum point, use fulvestrant diluted at 2 μM final concentrations in the growth media containing 0.2% DMSO. After dosing with test compound, incubate the cell plates at 37° C. and 5% CO2 for 72 hours. Fix the cells by adding 14% para-formaldehyde (10 μL) for 30 minutes at room temperature. Wash the cells with PBS (1×20 μL) and incubate with PBS (20 μL) of containing 0.5% (v/v) TWEEN® 20 for 1 hour. Wash the cells with PBS (2×20 μL) 0.05% TWEEN® 20, and block with 3% BSA/PBS 0.05% TWEEN® 20, 0.1% TRITON™ X-100 (20 μL/well) for 1 hour at room temperature. Add 1:500 primary antibody (20 μL) (PR monoclonal mouse anti-human antibody, clone PgR 636 Dako, M3569) dilution in 1% BSA/PBS 0.05 TWEEN® 20 per well, seal the plates and incubate overnight at 4° C.
The following day, wash the cells with PBS […] (2×20 μL) and incubate with secondary antibody (20 μL/well) (1:1000 dilution, Goat anti-rabbit IgM ALEXA FLUOR™ 488) in PBS 1% BSA for 105 minutes at room temperature. […] Seal the plates and incubate 1 hour at room temperature on the bench (preserved from light). Scan the plates with ACUMEN EXPLORER™ [Laser-scanning fluorescence microplate cytometer manufactured by TTP LABTECH LTD] to measure PRα. Image analysis is based on cellular fluorescent signals for identifying positive cells. Identify PR positive cells by mean intensity. Use total intensity at 575-640 nm from propidium iodide/DNA to identify individual cells. Assay output is % PR positive cells. Determine the IC50 by curve fitting to a four parameter logistic for each output using GENE DATA™.

[3] = molecular target: ERα (Homo sapiens (Human), UniProt P03372); assay: ERα degradation assay in MCF7 cells; assay type: cell-based; details: 24 hours, % ER positive cells, read-out: Relative IC50
Sequence of ERα (P03372 whole entry): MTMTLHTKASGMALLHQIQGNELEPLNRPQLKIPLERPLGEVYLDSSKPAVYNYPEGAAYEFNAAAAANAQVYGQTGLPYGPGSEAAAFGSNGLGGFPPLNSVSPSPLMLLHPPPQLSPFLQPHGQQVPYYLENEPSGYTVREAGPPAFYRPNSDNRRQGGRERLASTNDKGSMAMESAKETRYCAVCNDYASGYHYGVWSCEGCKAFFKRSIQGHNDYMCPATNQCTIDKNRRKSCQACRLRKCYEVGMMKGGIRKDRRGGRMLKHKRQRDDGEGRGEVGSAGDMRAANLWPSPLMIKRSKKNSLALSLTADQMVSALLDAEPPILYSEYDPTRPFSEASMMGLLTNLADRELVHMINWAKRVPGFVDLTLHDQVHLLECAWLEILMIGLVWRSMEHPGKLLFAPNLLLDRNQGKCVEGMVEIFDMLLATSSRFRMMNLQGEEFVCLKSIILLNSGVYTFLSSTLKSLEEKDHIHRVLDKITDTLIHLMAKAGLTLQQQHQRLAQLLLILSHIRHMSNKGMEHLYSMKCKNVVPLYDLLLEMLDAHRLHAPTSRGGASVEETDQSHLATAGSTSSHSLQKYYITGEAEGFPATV
Procedure: The purpose of the following ERα degradation assay is to measure the degradation of ERα by a test compound in an ERα positive breast cancer cell line such as MCF7.
Culture MCF7 (purchased from ATCC HTB-22) cells in DMEM media supplemented with 10% FBS, 0.01 mg/mL human insulin 1 and 1% penicillin/streptomycin antibiotics and plate in 384-well flat-bottom plates at a density of 4,000 cells per well in phenol red free DMEM media (20 μL) containing 10% charcoal stripped FBS. Incubate the cells overnight in a cell culture incubator (5% CO2, 95% relative humidity and 37° C.) and allow the cells to attach to the plate. The following day dose the cells with the test compound. Use an Echo 555 acoustic dispenser to prepare test compound serial dilutions (1:3) in a range from 6 μM to 0.0003 μM. Dose the cells with the addition of 5 μL from the serial dilution plate to the cell plate producing a final DMSO concentration of 0.2% with a final test compound concentration dose range between 2 and 0.0001 μM. For the maximum point, use media containing 0.2% of DMSO and for the minimum point, use fulvestrant diluted at 2 μM final concentrations in the growth media containing 0.2% DMSO. After dosing with the test compound, incubate the cell plates at 37° C. and 5% CO2 for 24 hours. Fix the cells by adding 14% para-formaldehyde (10 μL) for 30 minutes at room temperature. Wash the cells once with PBS (20 μL) and incubate with PBS (20 μL) containing 0.5% (v/v) TWEEN® 20 for 1 hour. Wash the cells with PBS containing 0.05% TWEEN® 20 (2×) and block with 3% BSA in PBS containing 0.05% TWEEN® 20 and 0.1% TRITON™ X-100 (20 μL/well) for 1 hour at room temperature. Add 1:500 Primary antibody (20 μL) (ERα (Clone SP1) monoclonal rabbit antibody # RM-9101-S, Thermo Scientific) dilution in 1% BSA in PBS containing 0.05% TWEEN® 20 per well, seal the plates and incubate overnight at 4° C. The following day wash the cells with PBS containing 0.05% TWEEN® 20 (2×) and incubate with secondary antibody (20 μL/well) (1:1000 dilution, Goat anti-rabbit IgM ALEXA FLUOR™ 488) in PBS 1% BSA for 105 minutes at room temperature. […] Seal the plates and incubate 1 hour at room temperature on the bench (preserved from light). Scan the plates with ACUMEN EXPLORER™ [Laser-scanning fluorescence microplate cytometer manufactured by TTP LABTECH LTD] to measure ERα. Image analysis is based on cellular fluorescent signals for identifying positive cells. Identify ER positive cells by mean intensity. Use total intensity at 575-640 nm from propidium iodide/DNA to identify individual cells. Assay output is % ER positive cells. Determine the IC50 by curve fitting to a four parameter logistic for each output using GENE DATA™.

Sequence of ERα (Y537S mutant) (P03372 whole entry Y537S): as the sequence (P03372 whole entry) above, with Y537S counted along it

Row | Compound | Ki [1] | IC50 [2] | DC50 [3]
1 | Oc1ccc2c3c(cnc2c1)-c1cccc(C(F)(F)F)c1OC3c1ccc(OCCN2CC(CF)C2)cc1 (racemic) [Example 2, 5-(4-{2-[3-(fluoromethyl)azetidin-1-yl]ethoxy}phenyl)-7-(trifluoromethyl)-5H-[1]benzopyrano[4,3-c]quinolin-2-ol] | 6.78 nM | 14.5 ± 2.62 nM | 52.2 ± 6.51 nM
2 | Oc1ccc2c3c(cnc2c1)-c1ccc(F)cc1OC3c1ccc(OCCN2CC(CF)C2)cc1 (racemic) [Example 5, 8-fluoro-5-(4-{2-[3-(fluoromethyl)azetidin-1-yl]ethoxy}phenyl)-5H-[1]benzopyrano[4,3-c]quinolin-2-ol] | 19.5 nM | 66.1 ± 15.5 nM | 36.5 ± 37.4 nM
3 | Oc1ccc2c3c(cnc2c1)-c1cccc(F)c1OC3c1ccc(OCCN2CC(CF)C2)cc1 (racemic) [Example 6, 7-fluoro-5-(4-{2-[3-(fluoromethyl)azetidin-1-yl]ethoxy}phenyl)-5H-[1]benzopyrano[4,3-c]quinolin-2-ol] | 15.8 nM | 63.2 ± 16.1 nM | 50.9 ± 6.89 nM
4 | Cc1ccc2c(c1)OC(c1ccc(OCCN3CC(CF)C3)cc1)c1c-2cnc2cc(O)ccc12 (racemic) [Example 7, 5-(4-{2-[3-(fluoromethyl)azetidin-1-yl]ethoxy}phenyl)-8-methyl-5H-[1]benzopyrano[4,3-c]quinolin-2-ol] | 8.55 nM | 127 nM | 78.8 ± 7.38 nM
5 | Cc1cccc2c1OC(c1ccc(OCCN3CC(CF)C3)cc1)c1c-2cnc2cc(O)ccc12 (racemic) [Example 8, 5-(4-{2-[3-(fluoromethyl)azetidin-1-yl]ethoxy}phenyl)-7-methyl-5H-[1]benzopyrano[4,3-c]quinolin-2-ol] | 11.4 nM | 41.2 ± 6.57 nM | 17.4 ± 8.75 nM
6 | Oc1ccc2c3c(cnc2c1)-c1cccc(C(F)(F)F)c1OC3c1ccc(OCCN2CC(CF)C2)cc1 (single isomer, unassigned) [Example 2A, 5-(4-{2-[3-(Fluoromethyl)azetidin-1-yl]ethoxy}phenyl)-7-(trifluoromethyl)-5H-[1]benzopyrano[4,3-c]quinolin-2-ol] | 7.92 nM | 24.9 ± 7.39 nM | 51.2 ± 16.3 nM
7 | Oc1ccc2c3c(cnc2c1)-c1cccc(C(F)(F)F)c1OC3c1ccc(OCCN2CC(CF)C2)cc1 (single isomer, unassigned) [Example 2B, 5-(4-{2-[3-(Fluoromethyl)azetidin-1-yl]ethoxy}phenyl)-7-(trifluoromethyl)-5H-[1]benzopyrano[4,3-c]quinolin-2-ol] | 294 nM | 1640 ± 223 nM | > 2000 nM
8 | Oc1ccc2c3c(cnc2c1)-c1ccc(F)cc1OC3c1ccc(OCCN2CC(CF)C2)cc1 (single isomer, unassigned) [Example 5A, 8-Fluoro-5-(4-{2-[3-(fluoromethyl)azetidin-1-yl]ethoxy}phenyl)-5H-[1]benzopyrano[4,3-c]quinolin-2-ol] | 81.2 nM | 394 nM | 522 nM
9 | Oc1ccc2c3c(cnc2c1)-c1ccc(F)cc1OC3c1ccc(OCCN2CC(CF)C2)cc1 (single isomer, unassigned) [Example 5B, 8-Fluoro-5-(4-{2-[3-(fluoromethyl)azetidin-1-yl]ethoxy}phenyl)-5H-[1]benzopyrano[4,3-c]quinolin-2-ol] | 6.56 nM | 18.2 ± 9.82 nM | 9.49 ± 1.1 nM

Continued, values first:

Row | Ki [1] | IC50 [2] | DC50 [3] | Compound
10 | 12.1 nM | 38.5 ± 3.87 nM | 22.4 ± 0.355 nM | Oc1ccc2c3c(cnc2c1)-c1cccc(Cl)c1OC3c1ccc(OCCN2CC(CF)C2)cc1 (racemic) [Example 4, 7-chloro-5-(4-{2-[3-(fluoromethyl)azetidin-1-yl]ethoxy}phenyl)-5H-[1]benzopyrano[4,3-c]quinolin-2-ol]
11 | 55 nM | 505 nM | 500 nM | Oc1ccc2c3c(cnc2c1)-c1cccc(Cl)c1OC3c1ccc(OCCN2CC(CF)C2)cc1 (single isomer, unassigned) [Example 4A, 7-Chloro-5-(4-{2-[3-(fluoromethyl)azetidin-1-yl]ethoxy}phenyl)-5H-[1]benzopyrano[4,3-c]quinolin-2-ol]
12 | 2.34 nM | 11.8 nM | 6.89 nM | Oc1ccc2c3c(cnc2c1)-c1cccc(Cl)c1OC3c1ccc(OCCN2CC(CF)C2)cc1 (single isomer, unassigned) [Example 4B, 7-Chloro-5-(4-{2-[3-(fluoromethyl)azetidin-1-yl]ethoxy}phenyl)-5H-[1]benzopyrano[4,3-c]quinolin-2-ol]
13 | 46 nM | 236 nM | 175 nM | Oc1ccc2c3c(cnc2c1)-c1cccc(F)c1OC3c1ccc(OCCN2CC(CF)C2)cc1 (single isomer, unassigned) [Example 6A, 7-Fluoro-5-(4-{2-[3-(fluoromethyl)azetidin-1-yl]ethoxy}phenyl)-5H-[1]benzopyrano[4,3-c]quinolin-2-ol]
14 | 5.71 nM | 13.6 nM | 9.13 nM | Oc1ccc2c3c(cnc2c1)-c1cccc(F)c1OC3c1ccc(OCCN2CC(CF)C2)cc1 (single isomer, unassigned) [Example 6B, 7-Fluoro-5-(4-{2-[3-(fluoromethyl)azetidin-1-yl]ethoxy}phenyl)-5H-[1]benzopyrano[4,3-c]quinolin-2-ol]
15 | 66.9 nM | 434 ± 195 nM | 234 nM | Cc1cccc2c1OC(c1ccc(OCCN3CC(CF)C3)cc1)c1c-2cnc2cc(O)ccc12 (single isomer, unassigned) [Example 8A, 5-(4-{2-[3-(Fluoromethyl)azetidin-1-yl]ethoxy}phenyl)-7-methyl-5H-[1]benzopyrano[4,3-c]quinolin-2-ol]
